“And” between values parts separate entries of the source, which are not always exact repeats. Equal values may be shown once. “Also recorded” adds a separate entry of the source. Read-outs that look alike come from different tables or passages of the source.
Legend:
T. gondii tachyzoites [1] = test: Parasites per vacuole in LLC-MK2 cells after 6 h treatment (light microscopy); assay type: cell-based, Toxoplasma gondii
Experimental: For the treatment of T. gondii tachyzoites with Cipro derivatives in vitro, 5x10^5 LLC-MK2 cells (ATCC CCL7, Rockville, MD/EUA) in RPMI medium were plated on coverslips inside 24-well tissue culture plates, and allowed to settle at 37°C (5% CO2) for ~24h. Then, cells were infected with parasites (freshly-harvested from infected mice) at a 10:1 ratio of parasites to host cells. […] Then, coverslips were fixed with Bouin and stained with panoptic (solutions 2 and 3 of the ‘Panotico rápido’ kit, from Laborclin Ltda., Paraná, Brazil). Alternatively, cultures were washed three times with 0.5 ml of medium (to remove test compounds) and incubated for an additional 18 h in medium without drugs, before fixing and staining. The number of parasites per vacuole was scored by direct light microscopy examination. Three independent experiments were performed for each treatment condition, and the results were analyzed by two-way ANOVA (using GraphPad Prism 5.0).

T. gondii [2] = test: Plaque assay in human foreskin fibroblasts, 10 days treatment; assay type: cell-based, Toxoplasma gondii; conditions: HFF
Experimental: For plaque assay, 6-well tissue culture plates were seeded with human foreskin fibroblasts (HFF; ATCC). HFF was grown in high glucose Dulbeco’s Modified Eagle Medium supplemented with 10% FBS, 2mM L-glutamine, 100 U/ml penicillin, and 100 μg/ml streptomycin and maintained at 37°C with 5% CO2. After cultures reached confluence each well was infected with 10^4 of T. gondii. Infected cultures were treated for 10 days with Cipro derivatives, Cipro or left untreated.

T. gondii tachyzoites [3] = test: Immunofluorescence microscopy of treated tachyzoites in LLC-MK2 cells (cell division arrest, basal IMC gap); assay type: cell-based, Toxoplasma gondii; conditions: for Basal IMC length mean: untreated control 0.65 ± 0.11 μm; for Effect on parasite division, anti-IMC1 labeling: 1 and 5 μM Et-Cipro and Adam-Cipro, 10 μM Ph-Cipro
Experimental: For Cipro assay, cells were infected in a ratio of 5:1 parasites per host cell and treated for 24, 48 and 72h. After treatment, infected cells were fixed in 3.7% freshly-prepared formaldehyde, permeabilized with 0.5% Triton X-100 for 15 min, and blocked with 3% bovine serum albumin (BSA) in PBS at pH 7.4 and room temperature for 1 h. All antibody incubations were performed in 3% BSA in PBS, for 1h, at room temperature. The following primary antibodies were used: anti-SAG1 (kindly provided by Dr. John Boothroyd, Stanford University School of Medicine, USA), at a dilution of 1:1000; anti-HSP60 and anti-Morn1 (kindly provided by Dr. Boris Striepen, University of Georgia, USA), diluted to 1:2000 and 1:100, respectively; and anti-IMC1 (kindly provided by Dr. Gary Ward, University of Vermont, USA), diluted to 1:1000. The secondary antibodies used here were anti-mouse/rabbit coupled to Alexa 488 or 546 (Molecular Probes). Sytox green (Molecular Probes) and DAPI (Sigma-Aldrich) were used to label the DNA. After labeling, the coverslips were mounted onto slides using Prolong gold (Life Technologies), and samples were examined on a TCSSP5 Leica or Zeiss LSM710 laser scanning confocal microscopes.

[4] = tested on: Cryptosporidium parvum sporozoites; test: Cryptosporidium parvum in vitro growth assay in MDBK cells; assay type: cell-based
Experimental: C. parvum oocysts obtained from infected neonatal calves (Institut National de la Recherche Agronomique-INRA, Nouzilly, France) were purified as previously described and stored in PBS at 4°C. Madin Darby bovine kidney cell line (MDBK; ECACC # 88081201, Sophia Antipolis, France) was cultured at 37°C in a 5% CO2 moist atmosphere in growth medium: RPMI 1640 (Sigma, L’Isle d’Abeau, France) supplemented with 25 mM HEPES (Sigma H-3375), 200 U/ml of penicillin, 200 μg/ml of streptomycin (Sigma P-0781) and 10% fetal calf serum (FCS; Dutscher, Brumath, France).
Prior to infection, MDBK cells were trypsinized and seeded in just one well of a 24-well plate in 2 ml of RPMI 1640 with 1% FCS. Aseptic oocysts were prepared for excystation by incubation in RPMI-1640, pH 2 (for 30 min at 37°C). Then, oocytes were washed in RPMI 1640 with 1% FCS and allowed to interact with MDBK cells for 1.5 h at 37°C in a 5% CO2 atmosphere. After 3 washes by centrifugation at 160 g in RPMI 1640 to remove non-excysted oocysts and shells, infected cells were plated in 24-well plates containing glass coverslips, in 500 μl/well of RPMI/1%FCS, and allowed to settle for 24 h. The infected cells were subsequently washed 3 times with RPMI 1640 and allowed to grow for a further 5 h (in 500 μl/well of RPMI/1% FCS). 500 μl of medium containing twice-concentrated Cipro derivatives were then added in triplicates in an equal volume of growth medium and left for another 24 h. Cells were fixed in 100% methanol and stained with 20% Giemsa and 1% Alcian blue as previously described, and the effects against sporozoite proliferation were evaluated by examining at least 1000 cells/coverslip in a light microscope, using an oil immersion X100 objective.

[5] = tested on: T. gondii tachyzoites (RH strain); test: Survival of mice acutely infected with T. gondii, 7-day oral treatment; assay type: in vivo, Toxoplasma gondii; conditions: 7 days, from 24 h post-infection
Experimental: In this study, we used tachyzoite forms the RH strain of Toxoplasma gondii, obtained from the peritoneal cavity of mice 2 days after infection. […] Drinking water and food were given ad libitum.
To determine compound efficacy against T. gondii in vivo, female Swiss mice were infected intraperitoneally (i.p.) with 5x10^3 T. gondii tachyzoites and treated with test compounds from 24 h post-infection. […] Mice were treated once daily for 7 days, by oral gavage, and mouse mortality was monitored once a day for a period of 60 days. During survival studies, mice were not inflicted to any suffering condition and mice presenting morbidity symptoms (shivering, ruffled hair and immobility) were euthanized by CO2 asphyxiation to minimize animal suffering, and then mortality was scored. Survival curves were calculated using the Kaplan and Meier method, and compared using the log-rank (Mantel-Cox) test, in GraphPad Prism 5.0 (GraphPad Software Inc.) and P<0.05 was considered statistically significant.

[6] = for Serum levels of creatinine kinase (in words): single oral dose, 48 h; for Mouse weight (g) After 48 h / Mouse weight (g) Initial: uninfected Swiss mice; for Mouse weight (g) Initial: before dosing; for Serum urea: reference 18–29 mg/dL; for Serum creatinine kinase: reference ≤ 1070 U/L
Experimental: Acute toxicity analysis was performed using non-infected female Swiss mice (19–21 g).

T. gondii tachyzoites [7] = conditions: read-out: IC50 against T. gondii in vitro; after 48 h of treatment; cited from earlier work
T. gondii [8] = tested on: T. gondii; parameters: method as in PMID 8843293, PMID 11120943; conditions: read-out: IC50 against T. gondii, cited from earlier work

Row | Structure (SMILES) | Parasite proliferation in plaque assay (T. gondii [2]; 10 μM) | Effect on parasite division, anti-IMC1 labeling (T. gondii tachyzoites [3]; 24 h) | % inhibition of sporozoites growth ([4]; 12.5 μM, 24 h, MDBK cells) [%] | % inhibition of sporozoites growth ([4]; 25 μM, 24 h, MDBK cells) [%] | Mouse weight (g) After 48 h ([6]; single oral dose 25 mg/kg) [g] | Mouse weight (g) Initial ([6]; single oral dose 25 mg/kg) [g] | Serum urea ([6]; single oral dose 25 mg/kg) [mg/dL] | Mouse weight (g) After 48 h ([6]; single oral dose 50 mg/kg) [g] | Mouse weight (g) Initial ([6]; single oral dose 50 mg/kg) [g] | Serum urea ([6]; single oral dose 50 mg/kg) [mg/dL] | Serum creatinine kinase ([6]; single oral dose 50 mg/kg) [U/L] | Mouse weight (g) After 48 h ([6]; single oral dose 100 mg/kg) [g] | Mouse weight (g) Initial ([6]; single oral dose 100 mg/kg) [g] | Serum urea ([6]; single oral dose 100 mg/kg) [mg/dL] | Mouse weight (g) After 48 h ([6]; single oral dose 200 mg/kg) [g] | Mouse weight (g) Initial ([6]; single oral dose 200 mg/kg) [g] | Serum urea ([6]; single oral dose 200 mg/kg) [mg/dL] | Serum creatinine kinase ([6]; single oral dose 200 mg/kg) [U/L] | IC50 (T. gondii tachyzoites [7]) [nM] | other results
1 | O=C(O)c1cn(C2CC2)c2cc(N3CCNCC3)c(F)cc2c1=O [Cipro, ciprofloxacin] | significant decrease in parasite proliferation; also recorded: drastic reduction on parasite proliferation | – | – | – | – | – | – | – | – | – | – | – | – | – | – | – | – | – | – | Vacuoles containing just one parasite (T. gondii tachyzoites [1]; 20 μM, 6 h treatment (7 h total infection), LLC-MK2): 54%; Parasitophorous vacuoles having just one parasite (T. gondii tachyzoites [1]; 50 μM, 6 h treatment (7 h total infection), LLC-MK2): 68%; Parasite proliferation in plaque assay (T. gondii [2]; 20 / 20 μM): No growth; also recorded: no plaques were observed; Alteration of tachyzoites (in words) (T. gondii tachyzoites [3]; 20 μM, 24 h): not induced any significant alteration; Parasitophorous vacuoles containing parasites presenting cell division arrest (T. gondii tachyzoites [3]; 20 μM, 48 h): 24%; Parasitophorous vacuoles containing parasites presenting cell division arrest (T. gondii tachyzoites [3]; 20 μM, 72 h): 26%; IC50 ([4]; Cryptosporidium parvum, MDBK, after 24h, estimated, read-out: IC50 against C. parvum): 39200 nM; inhibition at 12.5 µM ([4]; Cryptosporidium parvum, 12.5 μM, 24 h, MDBK cells): 19.5 ± 1.1%; inhibition at 25 µM ([4]; Cryptosporidium parvum, 25 μM, 24 h, MDBK cells): 46.1 ± 2.9%; inhibition at 50 µM ([4]; Cryptosporidium parvum, 50 μM, 24 h, MDBK cells): 53.4 ± 2.51%
2 | CCOC(=O)c1cn(C2CC2)c2cc(N3CCNCC3)c(F)cc2c1=O [Et-Cipro] | – | parasite cell division arrest | 20.3 ± 10.1 | 32.6 ± 7.6 | 22.25 | 19.87 | 55.8 | 20.92 | 19.15 | 51.2 | 182 | 22.27 | 20.71 | 55.1 | 22.17 | 20.0 | 49.3 | 583 | 420 | Survival of T. gondii-infected mice, alive 60 days post-infection ([5]; 50 mg/kg/day oral): 18%; Vacuoles containing just one parasite (T. gondii tachyzoites [1]; 2 μM, 6 h treatment (7 h total infection), LLC-MK2): 57%; Concentration required to affect parasite division significantly (T. gondii tachyzoites [1]; 6 h treatment): > 2 µM; Increase in activity (cell division inhibition) compared with the original compound Cipro (T. gondii tachyzoites [1]; 6 h treatment, concentrations with similar effect compared): 10 fold; Parasite proliferation in plaque assay (T. gondii [2]; 5 μM): No growth; also recorded: no plaques were observed; Basal IMC length mean (T. gondii tachyzoites [3]; 1 μM, 24 h): 0.76 ± 0.20 μm; Parasite morphology, anti-SAG1 / Sytox green labeling (T. gondii tachyzoites [3]; 5 μM, 24 h): formation of large multinucleated parasites; Basal IMC length mean (T. gondii tachyzoites [3]; 5 μM, 24 h): 0.80 ± 0.26 μm; % inhibition of sporozoites growth ([4]; 50 μM, 24 h, MDBK cells): 36% and 36.43 ± 9.76%; Serum levels of creatinine kinase (in words) ([6]; higher doses): normal; Serum creatinine kinase ([6]; single oral dose 25 mg/kg): 1727 U/L; Serum creatinine kinase ([6]; single oral dose 100 mg/kg): 578 U/L
3 | CCOC(=O)c1cn(C2CC2)c2cc(N3CCN(Cc4ccccc4)CC3)c(F)cc2c1=O [Ph-Cipro] | No growth; also recorded: no plaques were observed | parasite cell division arrest | 33.6 ± 11.6 | 42.6 ± 14.6 | 23.85 | 21.21 | 49.2 | 22.72 | 19.30 | 50.6 | 506 | 21.94 | 19.21 | 52.8 | 22.20 | 19.93 | 46.2 | 1541 | 1240 | Survival of T. gondii-infected mice, alive 60 days post-infection ([5]; 100 mg/kg/day oral): 13%; Survival of T. gondii-infected mice, alive 60 days post-infection ([5]; 150 mg/kg/day oral): 18%; Basal IMC length mean (T. gondii tachyzoites [3]; 10 μM, 24 h): 0.73 ± 0.24 μm; Serum levels of creatinine kinase (in words) ([6]; 200 mg/kg): slightly altered; Toxicity to mice (in words) ([6]; high doses (200mg/kg)): mild toxicity
4 | COc1c(N2CCNC(C)C2)c(F)cc2c(=O)c(C(=O)O)cn(C3CC3)c12 (stereo not shown) [gatifloxacin] | – | – | – | – | – | – | – | – | – | – | – | – | – | – | – | – | – | – | – | IC50 (T. gondii [8]; HFF primary cell culture after 48h): 520 nM
5 | N[C@@H]1[C@H]2CN(c3nc4c(cc3F)c(=O)c(C(=O)O)cn4-c3ccc(F)cc3F)C[C@@H]12 [trovafloxacin] | – | – | – | – | – | – | – | – | – | – | – | – | – | – | – | – | – | – | – | IC50 (T. gondii [8]; L929 cell line): 1370 nM
